Laboratory results as given in patent publication US20070270429A1, “Function Inhibitor of Effector Cell” (priority 2003, published 2007).

System: human CD8-positive T cell
Assay: Allo-reaction growth test (class I-MLR) of human CD8-positive T cell with dendritic cell
Type: cell-based
Settings: 5 days
Protocol: After treating the cells with BrdU for a predetermined period of time, the plate was centrifuged (300×g, 10 minutes), and then turned upside down and lightly shaken to remove the labeled medium. The plate was dried (for about 15 minutes) using a hair dryer. A cell fixing and DNA denaturing solution (200 μl, attached to the kit) was added to each well and left alone for 30 minutes. After removing the cell fixing and DNA denaturing solution and further removing water, a peroxidase-labeled anti-BrdU antibody (anti-BrdU-POD reaction solution) (100 μl) (attached to the kit) was added thereto and left alone at room temperature for 90 minutes. The antibody solution was discarded, each well was washed three times with PBS (200 μl), water was discarded, and then the substrate solution (100 μl) (attached to the kit) was added thereto. After carrying out the enzyme reaction for a period of 5 to 30 minutes, 1 N sulfuric acid solution (25 μl) was added thereto and stirred on a shaker. The absorbance of samples was measured by a microplate reader (SPECTRAMAX-PRO) at 450 nm (control wavelength: 690 nm).
A heparinized blood sample was collected from a human, healthy volunteer, and peripheral blood mononuclear cell (PBMC) was isolated by the density gradient centrifugation described in the above-described (2-1). CD8-positive T cell was isolated from this PBMC by the negative selection method described in the above-described (2-1).
CD 14-positive cell was obtained by fractionating the PBMC obtained by the above-described method using VarioMACS (Miltenyl Biotec). Specifically, CD14 antigen was labeled with antibody magnetic beads by adding 20 μl of CD14 MicroBeads (Miltenyl Biotec) to 1×10^7 cells of the PBMC, mixing them and incubating at 6 to 12° C. for 15 minutes. The cells were washed once with an MACS buffer (PBS containing 2 mM EDTA and 0.5% bovine serum albumin (BSA)) (20 ml) (attached to the kit) and re-suspended in the MACS buffer (2 ml). […]

CCCCN1C(=O)[C@@H]([C@H](O)C2CCCCC2)NC(=O)C12CCN(Cc1ccc(Cc3ccc(C(=O)O)cc3OC)cc1)CC2 [Compound (b), 4-[4-({(3R)-1-butyl-3-[(R)-cyclohexyl(hydroxy)methyl]-2,5-dioxo-1,4,9-triazaspiro[5.5]undec-9-yl}methyl)benzyl]-3-methoxybenzoic acid]
inhibition ratio of allo-reaction growth (0.1 μM): 7.8% | inhibition ratio of allo-reaction growth (1 μM): 17.6% | inhibition ratio of allo-reaction growth (10 μM): 44.1%
